Data on 11 molecules can be found in the SangsterLogP compilation.

In turn, `COc1ccc(S(N)(=O)=O)cc1C(=O)NCC1CCCN1C` (stereo unspecified) gave a logP of 1.01.
Turning to `COc1ccc(S(N)(=O)=O)cc1C(=O)NCC1CCCN1Cc1ccc(F)cc1` (stereo unspecified), the logP was 2.08.
`COc1cc(C(=O)NCc2ccc(OCCN(C)C)cc2)cc(OC)c1OC` returned a logP of 2.04.
In turn, `O=c1[nH]c2ccccc2n1C1CCN(CCCC(c2ccc(F)cc2)c2ccc(F)cc2)CC1` showed a logP of 6.06.
Take `COc1cccc(C(=O)NC2C[C@H]3CC[C@@H](C2)N3Cc2ccccc2)c1OC` (stereo partly specified): the logP is 3.07.
Molecule `C=CCN1CCCC1CNC(=O)c1cc2[nH]nnc2cc1OC` (stereo unspecified) gave a logP of 2.22.
Molecule `CCN1CCCC1CNC(=O)c1cc(S(=O)(=O)CC)c(N)cc1OC` (stereo unspecified) had a logP of 2.42.
The result for `NC(=O)C1(N2CCCCC2)CCN(CCCC(=O)c2ccc(F)cc2)CC1` reads 2.68.
`O=C(NCCN1CCC(n2c(=O)[nH]c3cc(Cl)ccc32)CC1)c1ccc(F)cc1` displayed a logP of 4.02.
On to `OCCN1CCN(CCCN2c3ccccc3Sc3ccc(C(F)(F)F)cc32)CC1`, for which the logP came out at 4.55.
`CCN1CCCC1CNC(=O)c1cc(S(=O)(=O)CC)ccc1OC` (stereo unspecified) displayed a logP of 2.05.

The term logP denotes a log measure of how a compound divides between an organic and an aqueous phase. Low readings indicate a more hydrophilic compound, high ones a more lipophilic compound.
